According to US20200392150A1, “Diaryl-B-Lactam Compound and Preparation Method and Pharmaceutical Use Thereof” (Fudan University, priority 2016, published 2020):
Read-outs that look alike come from different tables or passages of the source.

Assays:
[1] = tested on: A2780; assay: In vitro cell growth inhibition assay (MTT); type: cell-based, human; conditions: read-out: IC50 A2780
Method in brief: (§1)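 Following overnight adherence of 5000 cells per well, compounds or 0.2% DMSO were applied for 48 h. Medium was then swapped for 0.5 mg/mL MTT medium (4 h, 37° C), crystals dissolved in DMSO, and plates read at 540 nm.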

[2] = tested on: Hela; assay: In vitro cell growth inhibition assay (MTT); type: cell-based, human; conditions: 48 h, read-out: IC50 Hela
Method in brief: as §1

[3] = tested on: MDA-MB-231; assay: In vitro cell growth inhibition assay (MTT); type: cell-based, human; conditions: read-out: IC50 MDA-MB-231
Method in brief: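 5000 cells/well, overnight attachment; compounds 48 h (vehicle 0.2% DMSO); MTT 0.5 mg/mL, 4 h, 37° C; formazan in DMSO; A540. IC50 from growth inhibition rates.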

[4] = tested on: SKOV3; assay: In vitro cell growth inhibition assay (MTT); type: cell-based, human; conditions: read-out: IC50 SKOV3
Method in brief: as §1

[5] = A2780 human ovarian cancer cell line, 48 h, MTT
[6] = Hela human cervical cancer cell line, MTT
[7] = MDA-MB-231 human breast cancer cell line, 48 h, MTT
[8] = SK-OV-3, SKOV-3 human ovarian cancer cell line, 48 h, MTT

Compound | IC50 [1, 5] [nM] | IC50 [2, 6] [nM] | IC50 [3, 7] [nM] | IC50 [4, 8] [nM] | melting point [°C] | IC50 ([1]; Homo sapiens, A2780, 48 h) [nM] | IC50 ([2]; Homo sapiens, HeLa) [nM] | IC50 ([3]; Homo sapiens, MDA-MB-231, 48 h) [nM] | IC50 ([4]; Homo sapiens, SK-OV-3, 48 h) [nM]
C=C1C(=O)N(c2cc(OC)c(OC)c(OC)c2)[C@H]1c1ccc(OC)c(OC(C)C)c1 [Compound 5, (S)-4-(3-isopropoxy-4-methoxyphenyl)-3-methylene-1-(3,4,5-trimethoxyphenyl)azetidin-2-one] | 11300 | > 20000 | 15900 | 18000 | 146 to 147 |  |  |  | 
C=CCOc1cc([C@H]2C(=C)C(=O)N2c2cc(OC)c(OC)c(OC)c2)ccc1OC [Compound 6, (S)-4-(3-(allyloxy)-4-methoxyphenyl)-3-methylene-1-(3,4,5-trimethoxyphenyl)azetidin-2-one] | 1250 | 1150 | 883 | 1480 | 92 to 93 |  |  |  | 
C#CCOc1cc([C@H]2C(=C)C(=O)N2c2cc(OC)c(OC)c(OC)c2)ccc1OC [Compound 7, (S)-4-(4-methoxy-3-(prop-2-yn-1-yloxy)phenyl)-3-methylene-1-(3,4,5-trimethoxyphenyl)azetidin-2-one] | 429 | 1050 | 1200 | 841 | 106 to 107 |  |  |  | 
C=C1C(=O)N(c2cc(OC)c(OC)c(OC)c2)[C@H]1c1ccc(OC)c(OCCCl)c1 [Compound 10, (S)-4-(3-(2-chloroethoxy)-4-methoxyphenyl)-3-methylene-1-(3,4,5-trimethoxyphenyl)azetidin-2-one] | 409 | 887 | 608 | 864 | 91 to 92 |  |  |  | 
C=C1C(=O)N(c2cc(OC)c(OC)c(OC)c2)[C@H]1c1ccc(OC)c(OCCCCl)c1 [Compound 11, (S)-4-(3-(3-chloropropoxy)-4-methoxyphenyl)-3-methylene-1-(3,4,5-trimethoxyphenyl)azetidin-2-one] | 2180 | 6040 | 4150 | 4070 | 72 to 73 |  |  |  | 
C=C1C(=O)N(c2cc(OC)c(OC)c(OC)c2)[C@H]1c1ccc(OC)c(OCCN2CCOCC2)c1 [Compound 15, (S)-4-(4-methoxy-3-(2-morpholinoethoxy)phenyl)-3-methylene-1-(3,4,5-trimethoxyphenyl)azetidin-2-one] | > 10000 | > 10000 | > 10000 | > 10000 | 86 to 87 |  |  |  | 
C=C1C(=O)N(c2cc(OC)c(OC)c(OC)c2)[C@H]1c1ccc(OC)c(OC(=O)c2ccccc2)c1 [Compound 18, (S)-2-methoxy-5-(3-methylene-4-oxo-1-(3,4,5-trimethoxyphenyl)azetidin-2-yl)phenyl benzoate] | 287 | 386 | 637 | 484 | 151 to 152 |  |  |  | 
C=C1C(=O)N(c2cc(OC)c(OC)c(OC)c2)[C@H]1c1ccc(OC)c(OC(=O)c2ccc([N+](=O)[O-])cc2)c1 [Compound 19, (S)-2-methoxy-5-(3-methylene-4-oxo-1-(3,4,5-trimethoxyphenyl)azetidin-2-yl)phenyl 4-nitrobenzoate] | 55 | 102 | 105 | 84 | 88 to 89 |  |  |  | 
C=C1C(=O)N(c2cc(OC)c(OC)c(OC)c2)[C@H]1c1ccc(OC)c(OC(=O)c2ccc(F)cc2)c1 [Compound 20, (S)-2-methoxy-5-(3-methylene-4-oxo-1-(3,4,5-trimethoxyphenyl)azetidin-2-yl)phenyl 4-fluorobenzoate] |  |  |  |  | 185 to 186 | 169 | 75 | 223 | 114
C=C1C(=O)N(c2cc(OC)c(OC)c(OC)c2)[C@H]1c1ccc(OC)c(OC(=O)c2cccnc2)c1 [Compound 22, (S)-2-methoxy-5-(3-methylene-4-oxo-1-(3,4,5-trimethoxyphenyl)azetidin-2-yl)phenyl nicotinate] | 112 | 115 | 151 | 75 | 113 to 114 |  |  |  | 
